Measured values published in ChEMBL document CHEMBL4680245, “Design, synthesis and biological evaluation of tetrahydroquinoline-based reversible LSD1 inhibitors” (Eur J Med Chem, 2020).

Each compound was assayed against Lysine-specific histone demethylase 1A (Homo sapiens, UniProt O60341).
Description: Inhibition of human recombinant LSD1 using fluorogenic ADHP based substrate preincubated for 30 mins followed by substrate addition measured after 10 mins by horseradish peroxidase coupled fluorescence assay

Row | IC50 [µM] | Compound
1 | 0.00156 | Cc1ccncc1C(=O)Nc1cccc2c1N(Cc1ccc(OC3CCNCC3)cc1)CCC2
2 | 0.0256 | Cn1ccc2cc(C(=O)Nc3cccc4c3N(Cc3ccc(OC5CCNCC5)cc3)CCC4)ccc21
3 | 0.0363 | Cn1c(C(=O)Nc2cccc3c2N(Cc2ccc(O[C@H]4CC[C@H](N(C)C)CC4)cc2)CCC3)cc2sccc21
4 | > 50 | Cn1c(C(=O)Nc2cccc3c2N(Cc2ccc(OCc4ccc([N+](=O)[O-])cc4)cc2)CCC3)cc2sccc21
5 | 0.00097 | Cn1nc(C(=O)Nc2cccc3c2N(Cc2ccc(OC4CCNCC4)cc2)CCC3)c2ccccc21
6 | 0.00512 | O=C(Nc1cccc2c1N(Cc1ccc(OC3CCNCC3)cc1)CCC2)c1ccc(C(F)(F)F)cc1F
7 | > 0.05 | Cc1ccc2c(c1)cc(C(=O)Nc1cccc3c1N(Cc1ccc(OC4CCNCC4)cc1)CCC3)n2C
8 | > 50 | Cn1c(C(=O)Nc2cccc3c2N(Cc2ccc(OCc4ccc(C(N)=O)cc4)cc2)CCC3)cc2sccc21
9 | 0.00231 | O=C(Nc1cccc2c1N(Cc1ccc(OC3CCNCC3)cc1)CCC2)c1nc2ccccc2[nH]1
10 | > 0.05 | COc1ccc2c(c1)cc(C(=O)Nc1cccc3c1N(Cc1ccc(OC4CCNCC4)cc1)CCC3)n2C
11 | 0.00054 | O=C(Nc1cccc2c1N(Cc1ccc(OC3CCNCC3)cc1)CCC2)c1cccc2[nH]ccc12
12 | 0.00039 | O=C(Nc1cccc2c1N(Cc1ccc(OC3CCNCC3)cc1)CCC2)c1cc2ccccc2n1C(F)F
13 | > 0.05 | O=C(Nc1cccc2c1N(Cc1ccc(OC3CCNCC3)cc1)CCC2)c1ccc(C(F)(F)F)nc1
14 | 0.0313 | CN(C)CCCOc1ccc(CN2CCCc3cccc(NC(=O)c4cc5sccc5n4C)c32)cc1
15 | 0.0188 | O=C(Nc1cccc2c1N(Cc1ccc(OC3CCNCC3)cc1)CCC2)c1cnc2ccccc2c1
16 | > 50 | Cn1c(C(=O)Nc2cccc3c2N(Cc2ccc(OCc4cccc([N+](=O)[O-])c4)cc2)CCC3)cc2sccc21
17 | 0.0535 | CN1CCC(COc2ccc(CN3CCCc4cccc(NC(=O)c5cc6sccc6n5C)c43)cc2)CC1
18 | 0.00182 | O=C(Nc1cccc2c1N(Cc1ccc(OC3CCNCC3)cc1)CCC2)c1ccc(C(F)(F)F)cc1

Row | IC50 [µM] | Compound
19 | > 50 | Cn1c(C(=O)Nc2cccc3c2N(Cc2ccc(OCc4ccc(C#N)cc4)cc2)CCC3)cc2sccc21
20 | 0.149 | Cn1c(C(=O)Nc2cccc3c2N(Cc2ccc(OC[C@H]4CCNC4)cc2)CCC3)cc2sccc21
21 | 0.0366 | Cn1c(C(=O)Nc2cccc3c2N(Cc2ccc(O[C@H]4CC[C@H](N)CC4)cc2)CCC3)cc2sccc21
22 | 0.00015 | O=C(Nc1cccc2c1N(Cc1ccc(OC3CCNCC3)cc1)CCC2)c1cc2ccccc2n1CCCl
23 | 0.732 | Cn1c(C(=O)Nc2cccc3c2N(Cc2ccc(OCC4CCOCC4)cc2)CCC3)cc2sccc21
24 | 0.00053 | O=C(Nc1cccc2c1N(Cc1ccc(OC3CCNCC3)cc1)CCC2)c1cc2ccccc2o1
25 | > 50 | Cn1c(C(=O)Nc2cccc3c2N(Cc2ccc(OCc4cccc(C#N)c4)cc2)CCC3)cc2sccc21
26 | 0.0131 | O=C(Nc1cccc2c1N(Cc1ccc(OC3CCNCC3)cc1)CCC2)c1ccc2ccccc2n1
27 | > 50 | CN(C)c1cccc(COc2ccc(CN3CCCc4cccc(NC(=O)c5cc6sccc6n5C)c43)cc2)c1
28 | > 50 | CNc1cccc(COc2ccc(CN3CCCc4cccc(NC(=O)c5cc6sccc6n5C)c43)cc2)c1
29 | 0.00444 | Cn1ccc2cccc(C(=O)Nc3cccc4c3N(Cc3ccc(OC5CCNCC5)cc3)CCC4)c21
30 | 0.00018 | CC(C)n1c(C(=O)Nc2cccc3c2N(Cc2ccc(OC4CCNCC4)cc2)CCC3)cc2ccccc21
31 | 0.00265 | O=C(Nc1cccc2c1N(Cc1ccc(OC3CCNCC3)cc1)CCC2)c1cc2ccccc2n1CC1CC1
32 | 0.0163 | Cn1c(C(=O)Nc2cccc3c2N(Cc2ccc(OC4CCNCC4)cc2)CCC3)cc2cc(Cl)ccc21
33 | 0.00093 | O=C(Nc1cccc2c1N(Cc1ccc(OC3CCNCC3)cc1)CCC2)c1cc2ccccc2s1
34 | > 50 | Cn1c(C(=O)Nc2cccc3c2N(Cc2ccc(OCc4cccc(C(N)=O)c4)cc2)CCC3)cc2sccc21
35 | 0.00281 | O=C(Nc1cccc2c1N(Cc1ccc(OC3CCNCC3)cc1)CCC2)c1cc2ccccc2[nH]1
